Earlier results on two compounds are cited in patent US20090082349A1, “THIAZOLONES FOR USE AS PI3 KINASE INHIBITORS” (priority 2006, published 2009).

Broadly, the IC50 is the concentration at which inhibition is half-maximal.

Like-named read-outs stand apart in the source and are kept apart here.

One data set relates to Class I PI3-kinases. The following applies: each of the four Class I PI3-kinases.
For another data set, the target named is CK2 protein kinase (Homo sapiens, UniProt P68400).
CK2 protein kinase, sequence (P68400 whole entry): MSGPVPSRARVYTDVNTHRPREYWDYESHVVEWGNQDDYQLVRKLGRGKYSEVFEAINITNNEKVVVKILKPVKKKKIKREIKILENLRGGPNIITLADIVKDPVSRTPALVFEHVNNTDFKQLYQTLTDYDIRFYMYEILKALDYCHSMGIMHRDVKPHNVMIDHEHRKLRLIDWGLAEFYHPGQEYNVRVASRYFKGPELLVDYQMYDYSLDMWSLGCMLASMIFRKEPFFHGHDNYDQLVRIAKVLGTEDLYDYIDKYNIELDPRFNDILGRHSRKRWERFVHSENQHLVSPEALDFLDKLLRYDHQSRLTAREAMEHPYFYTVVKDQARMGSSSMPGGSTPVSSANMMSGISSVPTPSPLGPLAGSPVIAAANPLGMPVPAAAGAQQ

Take `O=c1cc(N2CCOCC2)oc2c(-c3ccccc3)cccc12` [LY294002]: the IC50 was 15 to 20 µM in the data set with Class I PI3-kinases (Fruman et al. 1998, read-out: IC50 against each of these PI3-kinases) and 5 to 10 µM on CK2 protein kinase. Consider `COC[C@H]1OC(=O)c2coc3c2[C@@]1(C)C1=C(C3=O)[C@@H]2CCC(=O)[C@@]2(C)C[C@H]1OC(C)=O` [wortmannin], for which, in the data set with Class I PI3-kinases (read-out: IC50 against each of the various Class I PI3-kinases), the IC50 is 0.001 to 0.01 µM.
